“Also recorded” adds a separate entry of the source. Non-standard residues stand in square brackets, D forms with d. Residues, ends and D or L forms follow the SMILES beside them. No end group written: not given here. Hyp = O=C(O)[C@@H]1C[C@@H](O)CN1; aThr = C[C@H](O)[C@H](N)C(=O)O
Assays:
SARS-CoV-2 [1] = assay: Viral reduction plaque assay in Vero cells; assay type: cell-based; set-up: key to Inhibition of Infection: ++: Validated strong inhibitor; +/−: Validated modest inhibitor; −: Validated no effect; conditions: for Inhibition of Infection: in-vitro experiments, SARS-CoV2; for number of infected cells compared to positive control: Vero cells, increasing concentrations, 4 days
SARS-CoV-2 [2] = assay: Cytopathic effect (CPE) assay in Vero cells with P-gp inhibitor CP-100356; assay type: cell-based; conditions: for EC50: Severe acute respiratory syndrome coronavirus 2, read-out: EC50 of inhibition of virus-induced CPE
SARS-CoV-2 [3] = assay type: cell-based
West Nile virus (WNV) = assay: WNV replication in Vero cells by viral foci assay; assay type: cell-based; conditions: 100 μM
Description: To exclude such possibilities, we tested the ability of any of the 4 active compounds plus one negative control compound to suppress the replication of West Nile virus (WNV), an RNA virus of the unrelated flavivirus family. […] Together, our experiments confirmed compounds ZINC000008077555, ZINC000230464020, ZINC000006623878, and ZINC000085876900 as specific inhibitors of SARS-CoV-2 replication but not interfering with the host cell.
The number of infectious SARS-CoV-2 virions was quantified by viral plaque assay. To this end, Vero cells were incubated with SARS-CoV-2 for 2 hrs and subsequently overlaid with 1% methylcellulose in culture medium. After 3-4 days, the cells were fixed in 10% formalin for 30 min, washed under tap water, and stained with crystal violet. The number of plaques corresponding to infections of individual cells by single virions was counted on a light table. The quantification of infectious WNV virions was performed similarly with the exception that the number of infected cell foci was determined by intracellular staining using a biotinylated anti-WNV-E antibody (clone E16), followed by an HRP-labeled anti-streptavidin antibody. HRP activity was detected with KPL Trueblue substrate (SeraCare).
Viral replication of SARS-CoV-2 in the presence of Mpro inhibitors was measured in Vero or Calu-3 cells in three ways. […] The virus-induced cytopathic effect was measured by determining the fraction of formalin-fixed adherent cells that remained after 3 days (Vero cells) or 4 days (Calu-3 cells). To this end, the cells were stained with crystal violet, PBS-washed, and air-dried. Following resuspension in methanol, crystal violet staining was measured in the spectrophometer at OD594. Cytotoxicity of the compounds was measured in parallel by the staining of uninfected cells incubated with the […]. In a second approach, drug activity was determined in Vero cells directly by viral plaque assay, using between 100-500 Pfu/well of virus and indicated concentrations of Mpro inhibitors. In a third approach, Vero cells were infected with SARS-CoV-2 or WNV at an MOI of 0.01 in the presence of […] of Mpro inhibitors for 2-3 days. Viral replication was measured indirectly at indicated time points by quantifying the titers of infectious virions in the supernatants with viral plaque or foci assays in the absence of the compounds. Viral replication in Calu-3 cells in the presence of indicated concentrations of compounds was determined similarly.

[4] = tested on: type I IFNs, ISGs, proinflammatory cytokines; assay type: cell-based, human; conditions: for type I IFNs, proinflammatory cytokines and ISGs in infected cells: cell line not given
Vero cells = conditions: 100 μM, with 2 μM CP-100356
Description: Vehicle-treated cells served as controls. The amounts of infectious virions in the cell supernatants were determined 2 days later by viral plaque assay.

Compound | Inhibition of Infection (SARS-CoV-2 [1]) | number of infected cells compared to positive control (SARS-CoV-2 [1]) | EC50 (SARS-CoV-2 [2]) [µM] | SARS-CoV-2 replication (viral titers in culture medium) (SARS-CoV-2 [3]) | suppression of SARS-CoV-2 replication, post-treatment (SARS-CoV-2 [3]) | suppression of SARS-CoV-2 replication, pre-treatment (SARS-CoV-2 [3]) | suppression of viral replication (SARS-CoV-2 [3]) | replication of WNV (West Nile virus (WNV)) | replication of WNV (West Nile virus (WNV); listed as ZINC0002304644020) | expression of type I IFNs, ISGs and proinflammatory cytokines vs cells infected without compound [4] | type I IFNs, proinflammatory cytokines and ISGs in infected cells [4] | toxicity (Vero cells) | replication of WNV (West Nile virus (WNV); listed as ZINC00000807555) | activity against virus-induced CPE (SARS-CoV-2 [2])
CC(C)n1[nH]c(=O)c2c(-c3ccc(O)c(O)c3)c3oc4c(O)c(=O)ccc4c3[nH]c21 [ZINC000085879857, 10-(3,4-dihydroxyphenyl)-6-hydroxy-14-propan-2-yl-8-oxa-13,14,16-triazatetracyclo[7.7.0.02,7.011,15]hexadeca-1,3,6,9,11(15)-pentaene-5,12-dione] | − |  |  |  |  |  |  |  |  |  |  |  |  | 
Nc1ncnc2c1ncn2[C@@H]1O[C@H](COP(=O)(O)OP(=O)(O)OP(=O)(O)OC[C@@H]2O[C@H](n3cnc4c(N)ncnc43)[C@H](O)[C@@H]2O)[C@H](O)[C@@H]1O [ZINC000085591448, [[(2S,3S,4R,5S)-5-(6-aminopurin-9-yl)-3,4-dihydroxyoxolan-2-yl]methoxy-hydroxyphosphoryl] [[(2R,3R,4S,5R)-5-(6-aminopurin-9-yl)-3,4-dihydroxyoxolan-2-yl]methoxy-hydroxyphosphoryl] hydrogen phosphate] | − |  |  |  |  |  |  |  |  |  |  |  |  | 
RYLGYL [ZINC000097972782, (2S)-2-[[(2S)-2-[[2-[[(2S)-2-[[(2S)-2-[[(2S)-2-amino-5-(diaminomethylideneamino)pentanoyl]amino]-3-(4-hydroxyphenyl)propanoyl]amino]-4-methylpentanoyl]amino]acetyl]amino]-3-(4-hydroxyphenyl)propanoyl]amino]-4-methylpentanoic acid] | − |  |  |  |  |  |  |  |  |  |  |  |  | 
COc1cc([C@H](CC(=O)NCCc2ccc(O)c(O)c2)c2c(O)nc3ccccn3c2=O)cc2c1OCCO2 [ZINC000230464020, (3S)-N-[2-(3,4-dihydroxyphenyl)ethyl]-3-(2-hydroxy-4-oxopyrido[1,2-a]pyrimidin-3-yl)-3-(5-methoxy-2,3-dihydro-1,4-benzodioxin-7-yl)propanamide] |  | significant drop | 4.6 to 22.6 | suppress SARS-CoV-2 replication | significant suppression | significant suppression | approximately 10 fold | did not significantly restrict replication of WNV | do not impact WNV replication | significantly higher expression | enhance |  |  | 
C[C@H](O)[C@H](N)C(=O)N[C@@H](Cc1ccc(O)cc1)C(=O)N[C@@H](CCCCN)C(=O)O [ZINC000005462364, (2S)-6-amino-2-[[(2S)-2-[[(2S,3S)-2-amino-3-hydroxybutanoyl]amino]-3-(4-hydroxyphenyl)propanoyl]amino]hexanoic acid] (H-[aThr]-Tyr-Lys-OH) | − |  |  |  |  |  |  |  |  |  |  |  |  | 
COc1ccc(-c2coc3c4c(cc(O)c3c2=O)OC(=O)C[C@@H]4c2ccc(OCC(N)=O)cc2)cc1 [ZINC000085876900, 2-[4-[(10R)-5-hydroxy-3-(4-methoxyphenyl)-4,8-dioxo-9,10-dihydropyrano[2,3-h]chromen-10-yl]phenoxy]acetamide] |  | significant drop | 4.6 to 22.6 | suppress SARS-CoV-2 replication | significant suppression | significant suppression | approximately 10 fold | did not significantly restrict replication of WNV; also recorded: do not impact WNV replication |  | significantly higher expression | enhance | toxic |  | 
NC(=O)CC[C@H](NC(=O)OCc1ccccc1)C(=O)NCCc1ccc(F)cc1 [ZINC000008077555, benzyl N-[(2S)-5-amino-1-[2-(4-fluorophenyl)ethylamino]-1,5-dioxopentan-2-yl]carbamate] | +/− | significant drop | 4.6 to 22.6 | suppress SARS-CoV-2 replication |  |  | approximately 10 fold | did not significantly restrict replication of WNV |  |  | enhance |  | do not impact WNV replication | 
C[C@H](NC(=O)[C@H](N)Cc1ccc(O)cc1)C(=O)N[C@H](Cc1ccccc1)C(=O)N1C[C@H](O)C[C@H]1C(=O)N[C@@H](Cc1ccc(O)cc1)C(N)=O [ZINC000644163977, (2S,4R)-N-[(2S)-1-amino-3-(4-hydroxyphenyl)-1-oxopropan-2-yl]-1-[(2R)-2-[[(2S)-2-[[(2R)-2-amino-3-(4-hydroxyphenyl)propanoyl]amino]propanoyl]amino]-3-phenylpropanoyl]-4-hydroxypyrrolidine-2-carboxamide] (H-[dY]A[dF][Hyp]Y-NH2) | +/− | modest |  | did not |  |  |  |  |  |  |  |  |  | negligible activity
COc1ccc(CNC(=O)Cc2c(C)c3ccc(O)c(O)c3oc2=O)c(OC)c1 [ZINC000006623878, 2-(7,8-dihydroxy-4-methyl-2-oxochromen-3-yl)-N-[(2,4-dimethoxyphenyl)methyl]acetamide] | ++ | significant drop | 4.6 to 22.6 | suppress SARS-CoV-2 replication | significant suppression | significant suppression | approximately 10 fold | did not significantly restrict replication of WNV; also recorded: do not impact WNV replication |  |  | enhance |  |  | 

Source: patent US20240261307A1, “INHIBITORS OF SARS-COV-2 VIRAL REPLICATION AND USES THEREOF” (ARIZONA BOARD OF REGENTS ON BEHALF OF THE UNIVERSITY OF …, priority 2021, published 2024)
